From patent US20230081390A1, “INHIBITORS OF RAF KINASES” (Kinnate Biopharma Inc., priority 2019, published 2023)
pIC50: −log10 of the molar value.

These molecules were tested against human RAF1 (Homo sapiens, UniProt P04049) (assay: Protein kinase assay (33P-ATP filter binding), human RAF1, 10-dose IC50). Conditions: MEK1 (K97R) substrate 3 micromolar, ATP 10 micromolar, read-out: RAF-1 IC50.
Assay type: biochemical
Method in brief: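 Human RAF1 phosphorylated human MEK1 (K97R) substrate at 3 µM with 10 µM ATP (³³P), in pH 7.5 HEPES buffer with MgCl2, EGTA, Brij35, BSA, Na3VO4 and DTT. Reactions ran for 2 hr at room temperature with P81 filter capture.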

Chain of human RAF1 (P04049 whole entry): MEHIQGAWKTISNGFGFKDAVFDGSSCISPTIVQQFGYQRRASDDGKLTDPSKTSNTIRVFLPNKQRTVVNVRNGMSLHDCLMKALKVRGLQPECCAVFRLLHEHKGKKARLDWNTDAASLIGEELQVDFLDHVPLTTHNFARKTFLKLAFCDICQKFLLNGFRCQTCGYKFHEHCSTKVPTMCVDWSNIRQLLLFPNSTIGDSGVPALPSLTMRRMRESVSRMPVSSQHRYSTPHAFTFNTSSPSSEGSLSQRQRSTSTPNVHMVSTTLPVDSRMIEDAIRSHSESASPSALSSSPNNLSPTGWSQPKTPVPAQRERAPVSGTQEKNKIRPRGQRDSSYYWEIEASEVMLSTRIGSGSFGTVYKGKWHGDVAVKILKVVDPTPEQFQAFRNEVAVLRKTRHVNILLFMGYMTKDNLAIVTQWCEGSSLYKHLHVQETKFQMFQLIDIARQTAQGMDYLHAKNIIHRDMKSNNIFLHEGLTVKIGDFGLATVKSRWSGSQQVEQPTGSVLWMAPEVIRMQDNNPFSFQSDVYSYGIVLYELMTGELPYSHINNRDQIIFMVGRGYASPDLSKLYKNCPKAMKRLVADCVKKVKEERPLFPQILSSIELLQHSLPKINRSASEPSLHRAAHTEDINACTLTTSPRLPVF

Structure (SMILES) | pIC50
Cc1ccc(NC(=O)N2CC[C@@H](OC(F)(F)F)C2)cc1-c1cc(OC2CNC2)nc(N2CCOCC2)c1 [Example 205, (R)-N-(3-(2-(azetidin-3-yloxy)-6-morpholinopyridin-4-yl)-4-methylphenyl)-3-(trifluoromethoxy)pyrrolidine-1-carboxamide] | > 8.00
Cc1ccc(NC(=O)N2CC[C@@H](CC(F)(F)F)C2)cc1-c1cc(OC2CC(O)C2)nc(N2CCOCC2)c1 (stereo partly drawn) [Example 206, (3S)-N-[3-[2-(3-hydroxycyclobutoxy)-6-(morpholin-4-yl)pyridin-4-yl]-4-methylphenyl]-3-(2,2,2-trifluoroethyl)pyrrolidine-1-carboxamide] | > 8.00
Cc1ccc(NC(=O)N2CC[C@@H](CC(F)(F)F)C2)cc1-c1cc(O[C@H]2CC[C@H](O)C2)nc(N2CCOCC2)c1 [Example 207, (3S)-N-[3-(2-[[(1S,3S)-3-hydroxycyclopentyl]oxy]-6-(morpholin-4-yl)pyridin-4-yl)-4-methylphenyl]-3-(2,2,2-trifluoroethyl)pyrrolidine-1-carboxamide] | > 8.00
Cc1ccc(NC(=O)N2CC[C@@H](CC(F)(F)F)C2)cc1-c1cc(O[C@@H]2CC[C@@H](O)C2)nc(N2CCOCC2)c1 [Example 208, (3S)-N-[3-(2-[[(1R,3R)-3-hydroxycyclopentyl]oxy]-6-(morpholin-4-yl)pyridin-4-yl)-4-methylphenyl]-3-(2,2,2-trifluoroethyl)pyrrolidine-1-carboxamide] | > 8.00
Cc1ccc(NC(=O)N2CC[C@@H](CC(F)(F)F)C2)cc1-c1cc(O[C@H]2CC[C@@H](O)C2)nc(N2CCOCC2)c1 [Example 209, (3S)-N-[3-(2-[[(1S,3R)-3-hydroxycyclopentyl]oxy]-6-(morpholin-4-yl)pyridin-4-yl)-4-methylphenyl]-3-(2,2,2-trifluoroethyl)pyrrolidine-1-carboxamide] | > 8.00
Cc1ccc(NC(=O)N2CC[C@@H](CC(F)(F)F)C2)cc1-c1cc(O[C@@H]2CC[C@H](O)C2)nc(N2CCOCC2)c1 [Example 210, (3S)-N-[3-(2-[[(1R,3S)-3-hydroxycyclopentyl]oxy]-6-(morpholin-4-yl)pyridin-4-yl)-4-methylphenyl]-3-(2,2,2-trifluoroethyl)pyrrolidine-1-carboxamide] | > 8.00
Cc1ccc(NC(=O)N2CC[C@@H](CC(F)(F)F)C2)cc1-c1cc(OC2CCC(C)(O)CC2)nc(N2CCOCC2)c1 (stereo partly drawn) [Example 211, (3S)-N-(3-[2-[(4-hydroxy-4-methylcyclohexyl)oxy]-6-(morpholin-4-yl)pyridin-4-yl]-4-methylphenyl)-3-(2,2,2-trifluoroethyl)pyrrolidine-1-carboxamide (cis)] | > 8.00
Cc1ccc(NC(=O)N2CC[C@@H](CC(F)(F)F)C2)cc1-c1cc(OC2CCC(C)(O)CC2)nc(N2CCOCC2)c1 (stereo partly drawn) [Example 212, (3S)-N-(3-[2-[(4-hydroxy-4-methylcyclohexyl)oxy]-6-(morpholin-4-yl)pyridin-4-yl]-4-methylphenyl)-3-(2,2,2-trifluoroethyl)pyrrolidine-1-carboxamide (trans)] | > 8.00
Cc1ccc(NC(=O)N2CC[C@@H](OC(F)(F)F)C2)cc1-c1cc(OC[C@H](C)O)nc(N2CCOCC2)c1 [Example 213, (3R)-N-(3-[2-[(2S)-2-hydroxypropoxy]-6-(morpholin-4-yl)pyridin-4-yl]-4-methylphenyl)-3-(trifluoromethoxy)pyrrolidine-1-carboxamide] | > 8.00
Cc1ccc(NC(=O)N2CC[C@@H](OC(F)(F)F)C2)cc1-c1cc(O[C@H](C)CO)nc(N2CCOCC2)c1 [Example 214, (3R)-N-[3-(2-[[(2R)-1-hydroxypropan-2-yl]oxy]-6-(morpholin-4-yl)pyridin-4-yl)-4-methylphenyl]-3-(trifluoromethoxy)pyrrolidine-1-carboxamide] | > 8.00
Cc1ccc(NC(=O)N2CC[C@@H](OC(F)(F)F)C2)cc1-c1cc(O[C@@H](C)CO)nc(N2CCOCC2)c1 [Example 215, (3R)-N-[3-(2-[[(2S)-1-hydroxypropan-2-yl]oxy]-6-(morpholin-4-yl)pyridin-4-yl)-4-methylphenyl]-3-(trifluoromethoxy)pyrrolidine-1-carboxamide] | > 8.00
Cc1ccc(NC(=O)N2CC=C(CC(F)(F)F)C2)cc1-c1cc(OCC(C)(C)O)nc(N2CCOCC2)c1 [Example 216, N-[3-[2-(2-hydroxy-2-methylpropoxy)-6-(morpholin-4-yl)pyridin-4-yl]-4-methylphenyl]-3-(2,2,2-trifluoroethyl)-2,5-dihydropyrrole-1-carboxamide] | > 8.00
Cc1ccc(NC(=O)N2CC[C@@H](CC(F)(F)F)C2)cc1-c1cc(OC2CC(C)(O)C2)nc(N2CCOCC2)c1 (stereo partly drawn) [Example 217, (3S)-N-[3-[2-(3-hydroxy-3-methylcyclobutoxy)-6-(morpholin-4-yl)pyridin-4-yl]-4-methylphenyl]-3-(2,2,2-trifluoroethyl)pyrrolidine-1-carboxamide] | > 8.00
Cc1ccc(NC(=O)N2CC[C@@H](CC(F)(F)F)C2)cc1-c1cc(OCC2(O)CC2)nc(N2CCOCC2)c1 [Example 218, (3S)-N-(3-[2-[(1-hydroxycyclopropyl)methoxy]-6-(morpholin-4-yl)pyridin-4-yl]-4-methylphenyl)-3-(2,2,2-trifluoroethyl)pyrrolidine-1-carboxamide] | > 8.00
Cc1ccc(NC(=O)N2CC[C@@H](CC(F)(F)F)C2)cc1-c1cc(O[C@@H]2CCC(F)(F)C2)nc(N2CCOCC2)c1 [Example 219, (3S)-N-[3-(2-[[(1R)-3,3-difluorocyclopentyl]oxy]-6-(morpholin-4-yl)pyridin-4-yl)-4-methylphenyl]-3-(2,2,2-trifluoroethyl)pyrrolidine-1-carboxamide] | > 8.00
Cc1ccc(NC(=O)N2CC[C@@H](CC(F)(F)F)C2)cc1-c1cc(O[C@H]2CCC(F)(F)C2)nc(N2CCOCC2)c1 [Example 220, (3S)-N-[3-(2-[[(1S)-3,3-difluorocyclopentyl]oxy]-6-(morpholin-4-yl)pyridin-4-yl)-4-methylphenyl]-3-(2,2,2-trifluoroethyl)pyrrolidine-1-carboxamide] | > 8.00
Cc1ccc(NC(=O)N2CC[C@@H](CC(F)(F)F)C2)cc1-c1cc(OCCS(C)(=N)=O)nc(N2CCOCC2)c1 (stereo partly drawn) [Example 221, (3S)-N-[3-(2-[2-[imino(methyl)oxo-λ^6-sulfanyl]ethoxy]-6-(morpholin-4-yl)pyridin-4-yl)-4-methylphenyl]-3-(2,2,2-trifluoroethyl)pyrrolidine-1-carboxamide] | > 8.00
Cc1ccc(NC(=O)N2CC=C(CC(F)(F)F)C2)cc1-c1cc(OC[C@@H](C)O)nc(N2CCOCC2)c1 [Example 222, (R)-N-(3-(2-(2-hydroxypropoxy)-6-morpholinopyridin-4-yl)-4-methylphenyl)-3-(2,2,2-trifluoroethyl)-2,5-dihydro-1H-pyrrole-1-carboxamide] | > 8.00
Cc1ccc(NC(=O)N2CC[C@@H](CC(F)(F)F)C2)cc1-c1cc(OC2CCC(C)(O)C2)nc(N2CCOCC2)c1 (stereo partly drawn) [Example 223, (3S)-N-(3-[2-[(3-hydroxy-3-methylcyclopentyl)oxy]-6-(morpholin-4-yl)pyridin-4-yl]-4-methylphenyl)-3-(2,2,2-trifluoroethyl)pyrrolidine-1-carboxamide] | > 8.00
